Tests used:
[1] = hydrated skin; cited from earlier work
[2] = In-vitro skin permeation study of lactic acid, Franz diffusion cell at finite dose (14C-lactic acid); type: in vitro ADME
Description: The skin permeation test was conducted by the following procedure:
In-vitro Skin Permeation Study
(§1) Franz Diffusion Cell Study at Finite Dose
(§2) For each formulation, skin sections were mounted on three or four flat flange Franz diffusion cells (FDC 400) with a diffusional cross-section area of 1.2cm^2. About 60 to 100 mg of test formulation were placed on the stratum corneum surface of the skin in the donor compartment and the receptor compartment was filled with about 11 ml of normal saline. The receptor fluid was well stirred throughout the experiment and the temperature was maintained by circulating water at 37° C. through the water jacket of the diffusion cells. Precisely 500 μl of receptor fluid was collected in a scintillation vial at appropriate intervals for a period of 68 hours. […] The receptor fluid was replenished after each withdrawal. All the receptor fluid and replenished fluids were filtered using a 0.22 μm filter and thoroughly degassed before use.

[3] = in vivo; cited from earlier work
[4] = cited from earlier work
[5] = Skin retention of lactic acid (epidermis and dermis analysis after the permeation study); type: in vitro ADME
Description: as §1, §2
Cotton swabs were used during the rinsing procedure to recover the remaining surface dose. A circular incision was made in the skin exposed to the formulation. The epidermis at the circular edge was slowly lifted using a pointed flat spatula, and then separated from the dermis using forceps. The epidermis and dermis were transferred to previously weighed teflon tape and dried in a desiccator for 72 hours until a constant weight was obtained. […]

CC(C)NCC(O)COc1cccc2ccccc12 (centres unmarked) [propranolol]
permeation or permeation rate on hydration of skin [1]: decreases the permeation rate by two fold

CCCCCCCCCCCCCC(=O)OC(C)C [IPM, isopropyl myristate]
skin permeation enhancer effect for lactic acid ([2]; FIGS. 1-2, IPM vs PGD in lysine lactate lotions): better skin permeation enhancer for lactic acid than PGD

CC(C)[C@H](N)C(=O)O [valine]
enhancement of skin permeation of lactic acid by valine [2]: does not enhance skin permeation of lactic acid

CC(O)C(=O)O (centres unmarked) [ammonium lactate]
skin irritation [3]: skin irritant to a degree which many patients find unacceptable
potency for other dermatological disorders ([4]; U.S. Pat. No. 5,091,171, topical ammonium salts): lost most of its potency
effectiveness in treating dermatological disorders ([4]; topical): very effective
skin retention of lactic acid / α-hydroxy acid (general finding) [5]: excellent lactic acid skin permeation and skin retention profiles
skin retention of lactic acid ([5]; pH 4.6): excellent skin retention

Source: patent US5420106A, “Method and composition having enhanced alpha-hydroxy acid skin permeation and retention” (priority 1994, dated 1995)
